In patent US7112570B2, “GPE analogs” (Neuren Pharmaceuticals, Ltd., priority 2000, dated 2006):
Ends that are not written are not given here. 3H = tritium label

Experiments:
[1] = test system: hypoxic-ischemic injury, hippocampal CA1/2 neurons; test: Neuronal survival after hypoxic-ischemic injury, GPE administered peripherally; type: in vivo; settings: rat, GPE intraperitoneally 2 hours after hypoxia, sacrificed 7 days after injury, FIG. 4
Description: This experiment involved treating rats with a control vehicle or GPE administered peripherally 2 hours after a focal CNS injury. […] The degree and length of hypoxia, the ambient temperature and humidity were defmed to standardize the degree of damage. The neuronal death is restricted to the side of the carotid ligation and is primarily in the hippocampus, dentate gyrus, striatum and lateral cortex of the ligated hemisphere. There is no neuronal loss in the contralateral hemisphere.
Specifically forty-nine 50–60 day old adult Wistar rats (280–310 g) were prepared under halothane/O2 anaesthesia. The right side carotid artery was ligated. The rats were allowed to recover for 1 hour and were then placed in an incubator with humidity 90±5% and temperature 31±0.5° C. for 1 hour before hypoxia. Oxygen concentration was reduced and maintained at 6±0.2% 02 for 10 minutes. […]
The rats were transcardially perfised with 0.9% saline followed by 4% paraformaldehyde, and the brains were removed and embedded in paraffin. […] Only cells with a morphology like live neurons were counted, while dead neurons or cells with morphology like glia were not included. […]
A coronal section (A-P 4.5 mm) was used for analysis of the hippocampus. All surviving neurons in the hippocampal CA1/2 region of the injured hemisphere were counted. Data were analysed with paired t-test and presented as mean±sem (standard error of the mean).

[2] = Tissue distribution / brain accumulation of tritiated GPE after cardiac, iv, ip or icv administration; settings: rat
Description: (§1) Tritiated GPE (Gly-[^3H]Pro-Glu, 1.6 ml, specific activity 50–60 Ci/mmol) obtained from Sibtech, Inc., USA was used in these experiments.
(§2) Adult Wistar rats (300 g) were prepared under halothane/O2 anaesthesia. The rats were randomly assigned to one of four groups: tritiated GPE, saline+0.1% BSA, tritiated GPE+non-tritiated GPE or tritiated proline. Rats in the tritiated GPE, tritiated proline and control groups were sacrificed at 30 min, 1 hr or 6 hrs after administration. Rats co-administered with both tritiated and non- tritiated GPE were sacrificed at 10 minutes after administration. For all groups, tissue was homogenized in Soluene® (a tissue solubilizer; Packard Bioscience Company, Meriden Conn.) and counted in a β counter.
(§3) Rats were injected with 10 million counts of tritiated GPE in 500 μl total (made up with 0.1% BSA in saline). Animals were sacrificed at 30 minutes, 1, 3 or 6 hrs. Tissue was homogenized in Soluene® and counted in a β counter.
(§4) Adult Wistar rats (300 g) were prepared under halothane/O2 anaesthesia. A guide cannula was placed on the dura 7.5 mm anterior from stereotaxic zero and 1.5 mm from midline on the right. One million counts of GPE and 600 μl of non-tritiated GPE were injected in 8 μl total volume (made up with 0.1% BSA in saline). Rats were sacrificed 30 minutes after administration. Tissue was homogenized in Soluene® and counted in a β counter.
(§5) Tritiated GPE, tritiated GPE+non-tritiated GPE, tritiated proline (Amersham) or tritiated proline+non-tritiated proline in vehicle (0.1M citrate buffer [pH6], diluted 10 times in 0.1% bovine serum albumin in 0.1M phosphate buffered saline [PBS] [pH7.3]) were then given by different routes of administration to injured and non-injured rats according to the following study design:
(§6) Cardiac administration was performed using a syringe. The syringe needle was placed into the left ventricle and one of the above four solutions was given.
(§7) IV administration was carried out by injecting one of the four solutions into the tail vein.
(§8) IP administration was performed by injecting one of the four solutions into the peritoneal cavity.
(§9) ICV administration was carried out according to the following procedure. The rats were lightly anaesthetized again using 0.15 ml Saffan™ (Pitman-Moore Ltd, NZ). The infusion of one of the four solutions was made into the right lateral ventricle guided by a metal cap fitted over the rat head using a modified technique originally described by Jirikowski (J Neuroscience Methods, 42: 115–118, 1992), in order to ensure correct placement of the infusion needle. One of the four solutions was administered in a single dose.
(§10) The rats were sacrificed using pentobarbital 10, 60 or 360 minutes after administration of either tritiated GPE or tritiated proline. […] Counts/minute/mg were made in the following tissues: kidney, blood, adrenal glands, liver, lung, testicle, heart, muscle, spinal cord and brain. HPLC was used in order to check that the particles counted were either tritiated GPE or tritiated proline.

[3] = rat, in vivo
Description: as §1, §2, §3, §4, §5, §6, §7, §8, §9, §10

[4] = test system: ^3H-Me-GPE binding sites in the rat brain; test: ^3H-Me-GPE binding autoradiography on rat tissue sections; settings: excess (10 μM) of competitor
Description: After tritiation the reaction mixture was diluted in ammonium acetate buffer (0.05M, pH 5.5 with 20% v/v methanol, 10 ml) and purified using Accell CM- and QMA+Sep-Paks (Waters, Milford, Mass., USA) in series. After washing with the ammonium acetate buffer to remove reagents and byproducts (tritiated water and tritiated methanol), the CM- and QMA+cartridges were uncoupled and the ^3H-Me-GPE was eluted from the QMA cartridge with ammonium bicarbonate (0.3M, 6 ml). The eluted material was lyophilized twice to remove the bulk of the ammonium bicarbonate, dissolved in ethanol-water (1:19, 20 μl ) and aliquots stored at −70° C.
The following experimental protocol followed guidelines approved by the University of Auckland Animal Ethics Committee. Adult male Wistar rats were killed by decapitation and tissues immediately removed and stored at −80° C. Coronal sections (16 μm) were cut on a cryostat and mounted on gelatin-coated slides. Normal adult human postmortem brain (n=4) tissue was cut and mounted in a similar manner. […]

**Q.** What does the source list for Gly-Pro-Glu [GPE]?
**A.** neuronal survival in the hippocampus after an hypoxic-ischemic injury [1]: increases neuronal survival; uptake in the brain of rats with an hypoxic-ischemic brain injury ([2]; ICV administration): selectively taken up on the injured side of the brain; displacement when tritiated and non-tritiated GPE were administered together ([2]; cardiac administration, supported by ICV administration): the only displacement of GPE occurred in the brain; ability to pass through the blood-brain-barrier ([2]; including in the absence of neural insult): pass through the blood-brain-barrier; amount in the brain compared to the corresponding time-points after iv and cardiac injection ([2]; ip administration): increased

**Q.** Which results are given for “Gly-[^3H]Pro-Glu (Gly-Pro(3H)-Glu; UniProt P05019 49-51, looked up, fragment) [tritiated GPE]”?
**A.** amount in the brain relative to the blood [3]: increases over time; time-point at which there was the most tritiated GPE in the brain [3]: 60 min

**Q.** Which “blockade of ^3H-Me-GPE binding in the CA1-2 region” value [4] does the source give for N-methyl-GPE here?
**A.** blocked
